What was measured:
Puccinia recondita = assay: Test Example E: Brown rust on wheat; type: in vivo; conditions: Brown rust on wheat; control value class
Plasmopara viticola = assay: Test Example G: Downy mildew on vine; conditions: Downy mildew on vine; 250 ppm spray, 7 to 10 days after inoculation
[1] = system: Blumeria graminis f. sp. hordei; assay: Test Example D: Powdery mildew on barley; conditions: Powdery mildew on barley; control value class
[2] = system: Colletotrichum orbiculare; assay: Test Example H: Anthracnose on cucumber; conditions: Anthracnose on cucumber; 250 ppm spray, 6 to 10 days after inoculation
Phytophthora infestans = assay: whole plant or invertebrate; type: in vivo; conditions: Late blight on tomato; control value class
Magnaporthe grisea = assay: whole plant or invertebrate; type: in vivo; conditions: Blast on rice; control value class
Alternaia brassicicola = assay: Test Example C: Alternaria sooty spot on cabbage; type: in vivo; conditions: Alternaria sooty spot on cabbage; control value class
Text: Seeds of a test plant (cabbage variety: Shikidori) were planted and cultivated until the cotyledons extended.
<Control Value> Control value=100{1−(n/3)}

Botrytis cinerea = assay: Test Example B: Gray mold on tomato; conditions: Gray mold on tomato; control value class

Structure (SMILES)	Test E control value (Puccinia recondita)	Test G control value (Plasmopara viticola)	Test D control value [1]	Test H control value [2]	Test F control value (Phytophthora infestans)	Test A control value (Magnaporthe grisea)	Test C control value (Alternaia brassicicola)	Test B control value (Botrytis cinerea)
CCc1cc(Br)c(=O)n(C)c1-c1ccc(OC)cc1Cl [compound 325]	H (more than 50% control value)	H (more than 50% control value)	L (50% or less control value)	H (more than 50% control value)	L (50% or less control value)	L (50% or less control value)	H (more than 50% control value)	H (more than 50% control value)
CCn1c(-c2c(F)cc(F)cc2F)c(C(Br)=CBr)cc(Cl)c1=O [compound 326]	H (more than 50% control value)	L (50% or less control value)	H (more than 50% control value)	H (more than 50% control value)	L (50% or less control value)	H (more than 50% control value)	H (more than 50% control value)	H (more than 50% control value)
CCc1cc(Cl)c(=O)n(CC)c1-c1ccc(OC)cc1Cl [compound 327]	H (more than 50% control value)	H (more than 50% control value)	L (50% or less control value)	H (more than 50% control value)	H (more than 50% control value)	H (more than 50% control value)	H (more than 50% control value)	H (more than 50% control value)
CCc1cc(Br)c(=O)n(CC)c1-c1ccc(OC)cc1Cl [compound 328]	H (more than 50% control value)	H (more than 50% control value)	L (50% or less control value)	H (more than 50% control value)	L (50% or less control value)	H (more than 50% control value)	H (more than 50% control value)	H (more than 50% control value)
CCCc1ccc(=O)n(C)c1-c1ccc(F)cc1Cl [compound 329]	H (more than 50% control value)	L (50% or less control value)	H (more than 50% control value)	L (50% or less control value)	L (50% or less control value)	L (50% or less control value)	L (50% or less control value)	H (more than 50% control value)
CCc1cc(Cl)c(=O)n(C)c1-c1ccc(O)cc1Cl [compound 330]	L (50% or less control value)	H (more than 50% control value)	L (50% or less control value)	L (50% or less control value)	L (50% or less control value)	L (50% or less control value)	L (50% or less control value)	H (more than 50% control value)
CCCc1ccc(=S)n(CC)c1-c1ccc(F)cc1Cl [compound 331]	H (more than 50% control value)	L (50% or less control value)	H (more than 50% control value)	H (more than 50% control value)	L (50% or less control value)	L (50% or less control value)	L (50% or less control value)	H (more than 50% control value)
CCCc1cc(Cl)c(=O)n(C)c1-c1ccc(F)cc1Cl [compound 332]	H (more than 50% control value)	L (50% or less control value)	H (more than 50% control value)	H (more than 50% control value)	L (50% or less control value)	H (more than 50% control value)	H (more than 50% control value)	H (more than 50% control value)
CCCc1ccc(=O)n(C)c1-c1ccc(OC)cc1Cl [compound 334]	H (more than 50% control value)	L (50% or less control value)	H (more than 50% control value)	L (50% or less control value)	L (50% or less control value)	L (50% or less control value)	L (50% or less control value)	H (more than 50% control value)
CCCc1cc(Cl)c(=O)n(C)c1-c1ccc(OC)cc1Cl [compound 335]	H (more than 50% control value)	H (more than 50% control value)	H (more than 50% control value)	H (more than 50% control value)	L (50% or less control value)	H (more than 50% control value)	H (more than 50% control value)	H (more than 50% control value)
CCCc1cc(Br)c(=O)n(C)c1-c1ccc(OC)cc1Cl [compound 336]	H (more than 50% control value)	H (more than 50% control value)	L (50% or less control value)	H (more than 50% control value)	L (50% or less control value)	H (more than 50% control value)	H (more than 50% control value)	H (more than 50% control value)
CCOc1ccc(-c2c(CC)cc(Cl)c(=O)n2C)c(Cl)c1 [compound 337]	H (more than 50% control value)	L (50% or less control value)	L (50% or less control value)	H (more than 50% control value)	L (50% or less control value)	L (50% or less control value)	L (50% or less control value)	H (more than 50% control value)
CCC1=C(c2ccc(F)cc2Br)N(CC)C(=O)CC1 [compound 338]	L (50% or less control value)	L (50% or less control value)	L (50% or less control value)	L (50% or less control value)	L (50% or less control value)	L (50% or less control value)	H (more than 50% control value)	L (50% or less control value)
CCc1ccc(=O)n(CC)c1-c1ccc(F)cc1Br [compound 340]	H (more than 50% control value)	L (50% or less control value)	H (more than 50% control value)	L (50% or less control value)	L (50% or less control value)	L (50% or less control value)	H (more than 50% control value)	H (more than 50% control value)
